Assay: Stability study of modified p-cresol under thermal conditions
Type: physicochemical
Settings: 120° C. for 1 h
Description: Compound 4, the product of the reaction of p-cresol and PTAD, was subjected to both strongly acidic and basic conditions for 24 hours at room temperature or high temperature (120° C.) for 1 hr. […] These conditions are extremely harsh for a peptide or protein.
The relative stability of the C—N bond formed in the products was studied using p-cresol as a model phenol. As shown in Scheme 11, p-cresol was reacted with PTAD in tetrahydrofuran in the presence of sodium hydride to provide adduct in 75% isolated yield. Compound 8f was subjected to both strong acidic and basic conditions for 24 hours at room temperature or high temperature (120° C.) for 1 h.
Compound 4 (4.00 mg, 0.0141 mmol) was heated at 120° C. for 1 h according to the literature. The recovery of 4 was 4.00 mg (quant.).
Compound 23 (4.00 mg, 0.0141 mmol) was heated at 120° C. for 1 h according to literature. The recovery of 23 was 4.00 mg (quant.).

Compound: Cc1ccc(O)c(-n2[nH]c(=O)n(-c3ccccc3)c2=O)c1 [Compound 4, 1-(2-hydroxy-5-methylphenyl)-4-phenyl-1,2,4-triazolidine-3,5-dione]
- decomposition by 1H NMR after heating: wasn't detected

Source: patent US8765920B2, “Tyrosine bioconjugation through aqueous Ene-like reactions” (priority 2009, dated 2014)
